Assays:
HT29 cells = experiment: HGF induced scattering of HT29 cells; type: cell-based, human; details: HT29, HGF 50 ng/ml 24 h, human peptides prior to induction (FIG. 17)
Description: FIG. 17: The human CD44 v6 specific peptides block HGF induced cell scattering and invasion into matrigel. Scattering of HT29 cells was determined in 24-well plates. First, 4.5×10^4 cells were seeded at 37° C.; after 24 h the cells were serum starved for additional 24 h. the cells were either left untreated (control) or later treated with HGF (50 ng/ml) for 24 h. Where indicated the cells were treated with the v6 specific peptide (human v6 5mer, 10mer, 14mer) or control peptide prior to induction with HGF for 30 min. Pictures were made using phase contrast microscopy. Magnification 40×.
A scatter assay was performed additionally. HT29 colon cancer cells were grown in medium containing 10% FCS. One day after seeding, the cells were starved. On the third day, the cells were induced with HGF (10 ng/ml) and pre-incubated with either no peptide, ctrl-peptides (SEQ ID No.: 15), non-pegylated v6-peptides (SEQ ID No.: 11) or the pegylated peptides, namely PEG-rat control peptide and PEG-rat CD44v6 peptide.
Scattering of HT29 cells was determined in 24-well plates. First, 4×10^5 cells were seeded at 37° C.; the cells were either left untreated or 48 h later treated with HGF (50 ng/ml) for 24 h or with PEGylated or non-PEGylated peptides (100 ng/ml) prior to HGF induction for 30 min.

ErbB receptors = experiment: EGF / TGFα induced Erk phosphorylation in MCF7; type: cell-based, human; details: 100 ng/ml peptide
4T1 cells = experiment: Syngeneic orthotopic 4T1 mammary carcinoma model in BALB/c mice; type: in vivo
Description: FIG. 26: Treatment with the v6 14mer reduces growth of the primary tumor and macroscopic metastases formation in the lung. 1×10^6 murine 4T1 cells per mouse were diluted in 50 μl RPMI plus 50 μl Matrigel and injected into the 6th mammary fat pad of 10 female BALB/c mice. One week after the injection, the mice were either injected intraperitoneally with 20 μg of the murine v6 14mer dissolved in 100 μl PBS or with 20 μg of control peptide (rat v6 14mer) dissolved in 100 μl PBS. The injection was performed 3 times per week for two weeks. After 2 weeks the mice were sacrificed and the primary tumors and the lungs were extracted. A: Overall reduction of the tumor volume in the v6 peptide treated group. B: Immunofluorescent staining for the endothelial marker CD34 to monitor vascularization of the primary tumor. Graphic representation of the reduction of the total vessel area. C: The v6 peptides led to a reduction in macroscopic lung metastasis. The black arrows mark examples for metastases. The scale bar corresponds to a size of 1 cm. Statistical evaluation of the average number of lung metastases. Significance was calculated using Student's t test: p*<0.01; **p<0.005. Each group consisted of 5 animals.
The effect of the CD44v6 14mer was tested in a syngeneic mouse model by orthotopic injection of the murine mammary carcinoma cells 4T1. 4T1 cells were originally derived from a spontaneously arising BALB/c mammary tumor. When introduced orthotopically, 4T1 cells grow rapidly at the primary site and form metastases in the lung and the lymph nodes within a period of 3-6 weeks. The tumor growth and metastatic spreading of 4T1 cells in BALB/c mice very closely mimics human breast cancer stage IV.
The 4T1 cells were injected orthotopically into the 6th mammary fat pad. Two groups of 5 animals each with the implanted tumor cells were then used for the experiment. One group was treated with the v6 14mer peptide, one with a control (rat) peptide. The injection of the peptide was performed 3 times per week and planned for three to four weeks but had to be stopped after two weeks as the control group suffered from large tumors.

[1] = murine v6 14mer 20 μg i.p. 3 times per week for two weeks

Q: Which “HGF induced scattering or invasion through the extracellular matrix” value (HT29 cells) does the source give for “KEQWFGNRWHEGYR [human 14mer, human CD44v6 14mer peptide]” here?
A: prevented completely scattering or invasion through the extracellular matrix

Q: And the “Erk phosphorylation upon EGF treatment” value (ErbB receptors; 20 ng/ml EGF (FIG. 16))?
A: blocking of Erk phosphorylation upon EGF treatment

Q: And the “Erk phosphorylation upon TGFα induction” value (ErbB receptors; 20 ng/ml TGFα (FIG. 16))?
A: not upon TGFα induction

Q: And the “macroscopic lung metastases per animal” value (4T1 cells; 20 μg i.p. 3 times per week for two weeks, 5 animals per group)?
A: three animals showed no macroscopic metastases at all, whereas two animals had only one metastase

Q: What about the primary tumor size (4T1 cells; [1]) of the same sequence?
A: significant decrease of tumor size

Q: What about the “total number of blood vessels (anti-CD34 staining)” value (4T1 cells; [1]) of the same sequence?
A: significantly reduced
